The source of these data is patent publication US9688627B2, “Lactam compounds as EP4 receptor-selective agonists for use in the treatment of EP4-mediated diseases and conditions” (Cayman Chemical Company, Inc., priority 2013, dated 2017).

The target of one assay is T1, rat EP4 receptor (Rattus norvegicus, UniProt P43114).
T1 construct: cells seeded on STEP plates
The experiment in a line: SEAP activity assay on EP4 STEP plate. Format: cell-based. Conditions: SEAP luminescence, 6-8 hours of stimulation; read-out: STEP cell functional assay EC50 SEAP/EP4. The text has this:
(§1) 2. […] In addition each concentration had triplicates. […] 4. […] Cover the plate with the lid. […] 6. […] 7. […] 8.

The target in the next assay is T2, rat EP2 receptor (Rattus norvegicus, UniProt Q62928).
T2 construct: cells seeded on STEP plates
Put plainly: SEAP activity assay on EP2 STEP plate. The format is cell-based. Conditions: SEAP luminescence, 6-8 hours of stimulation; read-out: STEP cell functional assay EC50 SEAP/EP2.
From the text: as §1

T1 sequence (P43114 whole entry): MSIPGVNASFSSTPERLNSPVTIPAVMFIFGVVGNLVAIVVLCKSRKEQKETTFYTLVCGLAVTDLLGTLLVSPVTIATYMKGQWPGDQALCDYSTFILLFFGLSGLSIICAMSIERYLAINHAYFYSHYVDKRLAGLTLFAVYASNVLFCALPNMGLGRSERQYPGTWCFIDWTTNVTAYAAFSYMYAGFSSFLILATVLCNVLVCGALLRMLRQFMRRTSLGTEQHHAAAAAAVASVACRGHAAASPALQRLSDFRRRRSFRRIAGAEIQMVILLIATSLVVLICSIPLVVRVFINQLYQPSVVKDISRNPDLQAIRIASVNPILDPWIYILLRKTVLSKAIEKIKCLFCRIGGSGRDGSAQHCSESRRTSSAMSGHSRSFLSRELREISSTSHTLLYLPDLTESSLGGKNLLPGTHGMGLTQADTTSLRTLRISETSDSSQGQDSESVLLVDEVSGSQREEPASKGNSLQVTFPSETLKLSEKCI
T2 sequence (Q62928 whole entry): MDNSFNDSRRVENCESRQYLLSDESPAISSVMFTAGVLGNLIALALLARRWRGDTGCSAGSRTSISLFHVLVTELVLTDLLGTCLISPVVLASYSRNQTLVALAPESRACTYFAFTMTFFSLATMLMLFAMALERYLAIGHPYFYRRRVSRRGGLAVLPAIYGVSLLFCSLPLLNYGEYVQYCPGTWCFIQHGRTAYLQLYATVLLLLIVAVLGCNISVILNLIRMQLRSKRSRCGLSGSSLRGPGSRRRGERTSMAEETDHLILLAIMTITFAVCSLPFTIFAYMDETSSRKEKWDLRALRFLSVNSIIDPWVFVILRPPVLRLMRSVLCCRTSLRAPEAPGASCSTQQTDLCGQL

For `CCC#CCC(C)[C@@H](O)/C=C/[C@H]1CCC(=O)N1CCCCCCC(=O)O` (mixture of isomers) [Example 2D, 7-((2R)-2-((3R,4R/S,E)-3-hydroxy-4-methylnon-1-en-6-yn-1-yl)-5-oxopyrrolidin-1-yl)heptanoic acid], the EC50 is 0.145 nM on rat EP4 receptor and 1420 nM on rat EP2 receptor. Regarding `CCCC#CCC(C)[C@H](O)/C=C/[C@H]1CCC(=O)N1CCCCCCC(=O)OC` (mixture of isomers) [Example 3A, methyl 7-((2R)-2-((3S,4R/S,E)-3-hydroxy-4-methyldec-1-en-6-yn-1-yl)-5-oxopyrrolidin-1-yl)heptanoate], the values for the EC50 at rat EP4 receptor and at rat EP2 receptor were 8.64 nM and 2490 nM, respectively. On the same counts, the results for `CCCC#CCC(C)[C@@H](O)/C=C/[C@H]1CCC(=O)N1CCCCCCC(=O)OC` (mixture of isomers) [Example 3B, methyl 7-((2R)-2-((3R,4R/S,E)-3-hydroxy-4-methyldec-1-en-6-yn-1-yl)-5-oxopyrrolidin-1-yl)heptanoate] are 223 nM and greater than 10000 nM.

Regarding `CCCC#CCC(C)[C@H](O)/C=C/[C@H]1CCC(=O)N1CCCCCCC(=O)O` (mixture of isomers) [Example 3C, 7-((2R)-2-((3S,4R/S,E)-3-hydroxy-4-methyldec-1-en-6-yn-1-yl)-5-oxopyrrolidin-1-yl)heptanoic acid], the EC50 amounted to 0.085 nM at rat EP4 receptor and 2260 nM on rat EP2 receptor. On the same counts, the results for `CCCC#CCC(C)[C@@H](O)/C=C/[C@H]1CCC(=O)N1CCCCCCC(=O)O` (mixture of isomers) [Example 3D, 7-((2R)-2-((3R,4R/S,E)-3-hydroxy-4-methyldec-1-en-6-yn-1-yl)-5-oxopyrrolidin-1-yl)heptanoic acid] are 29 nM and greater than 10000 nM. For `CC(CC#Cc1ccccc1)[C@H](O)/C=C/[C@H]1CCC(=O)N1CCCCCCC(=O)O` (mixture of isomers) [Example 4C, 7-((2R)-2-((3S,4R/S,E)-3-hydroxy-4-methyl-7-phenylhept-1-en-6-yn-1-yl)-5-oxopyrrolidin-1-yl)heptanoic acid], in that order: 2.49 nM and 830 nM. For `CC#CCC(C)[C@H](O)/C=C/[C@H]1CCC(=O)N1CCc1ccc(C(=O)OC)cc1` (mixture of isomers) [Example 8A, methyl 4-(2-((2R)-2-((3S,4R/S,E)-3-hydroxy-4-methyloct-1-en-6-yn-1-yl)-5-oxopyrrolidin-1-yl)ethyl)benzoate], in that order: 6.74 nM and 364 nM.

In the case of `CC#CCC(C)[C@@H](O)/C=C/[C@H]1CCC(=O)N1CCc1ccc(C(=O)OC)cc1` (mixture of isomers) [Example 8B, methyl 4-(2-((2R)-2-((3R,4R/S,E)-3-hydroxy-4-methyloct-1-en-6-yn-1-yl)-5-oxopyrrolidin-1-yl)ethyl)benzoate], the EC50 on rat EP4 receptor was determined as 1640 nM.

Regarding `CC#CCC(C)[C@@H](O)/C=C/[C@H]1CCC(=O)N1CCc1ccc(C(=O)O)cc1` (mixture of isomers) [Example 8D, 4-(2-((2R)-2-((3R,4R/S,E)-3-hydroxy-4-methyloct-1-en-6-yn-1-yl)-5-oxopyrrolidin-1-yl)ethyl)benzoic acid], the EC50 stood at 13.4 nM on rat EP4 receptor and 1130 nM at rat EP2 receptor.

With `CC(CC#Cc1ccccc1)[C@H](O)/C=C/[C@H]1CCC(=O)N1CCc1ccc(C(=O)O)cc1` (mixture of isomers) [Example 11C, 4-(2-((2R)-2-((3S,4R/S,E)-3-hydroxy-4-methyl-7-phenylhept-1-en-6-yn-1-yl)-5-oxopyrrolidin-1-yl)ethyl)benzoic acid], the EC50 was found to be 0.054 nM on rat EP4 receptor and 2960 nM at rat EP2 receptor.

For the compound `CC(CC#Cc1ccccc1)[C@@H](O)/C=C/[C@H]1CCC(=O)N1CCc1ccc(C(=O)O)cc1` (mixture of isomers) [Example 11D, 4-(2-((2R)-2-((3R,4R/S,E)-3-hydroxy-4-methyl-7-phenylhept-1-en-6-yn-1-yl)-5-oxopyrrolidin-1-yl)ethyl)benzoic acid], the EC50 at rat EP4 receptor was 3.51 nM; on rat EP2 receptor, 1750 nM. For `CC#CCC(C)[C@H](O)/C=C/[C@H]1CCC(=O)N1Cc1ccc(CC(=O)O)cc1` (mixture of isomers) [Example 12C, 2-(4-(((2R)-2-((3S,4R/S,E)-3-hydroxy-4-methyloct-1-en-6-yn-1-yl)-5-oxopyrrolidin-1-yl)methyl)phenyl)acetic acid], in that order: 2290 nM and greater than 10000 nM. On the same counts, the results for `CC#CCC(C)[C@@H](O)/C=C/[C@H]1CCC(=O)N1Cc1ccc(CC(=O)O)cc1` (mixture of isomers) [Example 12D, 2-(4-(((2R)-2-((3R,4R/S,E)-3-hydroxy-4-methyloct-1-en-6-yn-1-yl)-5-oxopyrrolidin-1-yl)methyl)phenyl)acetic acid] are greater than 10000 nM and greater than 10000 nM. On the same counts, the results for `CCC#CCC(C)[C@H](O)/C=C/[C@H]1CCC(=O)N1C/C=C\c1ccc(C(=O)O)s1` (mixture of isomers) [Example 15C, 5-((Z)-3-((2R)-2-((3S,4R/S,E)-3-hydroxy-4-methylnon-1-en-6-yn-1-yl)-5-oxopyrrolidin-1-yl)prop-1-en-1-yl)thiophene-2-carboxylic acid] are 947 nM and greater than 10000 nM. As for `CCC#CCC(C)[C@@H](O)/C=C/[C@H]1CCC(=O)N1C/C=C\c1ccc(C(=O)O)s1` (mixture of isomers) [Example 15D, 5-((Z)-3-((2R)-2-((3R,4R/S,E)-3-hydroxy-4-methylnon-1-en-6-yn-1-yl)-5-oxopyrrolidin-1-yl)prop-1-en-1-yl)thiophene-2-carboxylic acid], the results for the EC50 on rat EP4 receptor and on rat EP2 receptor were 1600 nM and greater than 10000 nM, respectively. For `CC(CC#Cc1ccccc1)[C@H](O)/C=C/[C@H]1CCC(=O)N1C/C=C\c1ccc(C(=O)O)s1` (mixture of isomers) [Example 16C, 5-((Z)-3-((2R)-2-((3S,4R/S,E)-3-hydroxy-4-methyl-7-phenylhept-1-en-6-yn-1-yl)-5-oxopyrrolidin-1-yl)prop-1-en-1-yl)thiophene-2-carboxylic acid], in that order: 67.2 nM and greater than 10000 nM. For `CC(CC#Cc1ccccc1)[C@@H](O)/C=C/[C@H]1CCC(=O)N1C/C=C\c1ccc(C(=O)O)s1` (mixture of isomers) [Example 16D, 5-((Z)-3-((2R)-2-((3R,4R/S,E)-3-hydroxy-4-methyl-7-phenylhept-1-en-6-yn-1-yl)-5-oxopyrrolidin-1-yl)prop-1-en-1-yl)thiophene-2-carboxylic acid], in that order: 1200 nM and greater than 10000 nM. For `COC(=O)CCCCCCN1C(=O)CC[C@@H]1/C=C/[C@@H](O)CCC#Cc1ccccc1` (single isomer, unassigned) [Example 5A], in that order: 77.7 nM and greater than 10000 nM. As for `COC(=O)CCCCCCN1C(=O)CC[C@@H]1/C=C/[C@H](O)CCC#Cc1ccccc1` (single isomer, unassigned) [Example 5B], the EC50 was 41.5 nM at rat EP4 receptor and greater than 5000 nM at rat EP2 receptor. For `CCC#C[C@H](O)/C=C/[C@H]1CCC(=O)N1CCCCCCC(=O)OC` (single isomer, unassigned) [Example 6A], in that order: 6.71 nM and greater than 3000 nM. For the compound `CCC#C[C@@H](O)/C=C/[C@H]1CCC(=O)N1CCCCCCC(=O)OC` (single isomer, unassigned) [Example 6B], the EC50 on rat EP2 receptor is greater than 2000 nM.

As to `CCC#CC[C@@H](C)[C@H](O)/C=C/[C@H]1CCC(=O)N1CCCCCCC(=O)O` [Example 2F, 7-((R)-2-((3S,4R,E)-3-hydroxy-4-methylnon-1-en-6-yn-1-yl)-5-oxopyrrolidin-1-yl)heptanoic acid], the EC50 on rat EP4 receptor stood at 1.06 ± 0.11 nM.

With `O=C(O)CCCCCCN1C(=O)CC[C@@H]1/C=C/[C@@H](O)CCC#Cc1ccccc1` [Example 5C, 7-((R)-2-((3S,E)-3-hydroxy-7-phenylhept-1-en-6-yn-1-yl)-5-oxopyrrolidin-1-yl)heptanoic acid], the EC50 at rat EP4 receptor was found to be 111 nM.

In the case of `O=C(O)CCCCCCN1C(=O)CC[C@@H]1/C=C/[C@H](O)CCC#Cc1ccccc1` [Example 5D, 7-((R)-2-((3R,E)-3-hydroxy-7-phenylhept-1-en-6-yn-1-yl)-5-oxopyrrolidin-1-yl)heptanoic acid], the EC50 on rat EP4 receptor came out at 46.8 nM.

On to `CCC#C[C@H](O)/C=C/[C@H]1CCC(=O)N1CCCCCCC(=O)O` [Example 6C, 7-((R)-2-((R,E)-3-hydroxyhept-1-en-4-yn-1-yl)-5-oxopyrrolidin-1-yl)heptanoic acid], for which the EC50 on rat EP4 receptor amounted to 4.73 nM. Take `CCC#C[C@@H](O)/C=C/[C@H]1CCC(=O)N1CCCCCCC(=O)O` [Example 6D, 7-((R)-2-((S,E)-3-hydroxyhept-1-en-4-yn-1-yl)-5-oxopyrrolidin-1-yl)heptanoic acid]: at rat EP4 receptor, the EC50 amounted to 4.79 nM. Take `O=C(O)CCCCCCN1C(=O)CC[C@@H]1/C=C/[C@@H](O)C#Cc1ccccc1` [Example 7C, 7-((R)-2-((R,E)-3-hydroxy-5-phenylpent-1-en-4-yn-1-yl)-5-oxopyrrolidin-1-yl)heptanoic acid]: the EC50 at rat EP4 receptor is 22.3 nM; on rat EP2 receptor, greater than 10000 nM. On the same counts, the results for `CCC#CCC(C)[C@H](O)/C=C/[C@H]1CCC(=O)N1CC#Cc1ccc(C(=O)O)s1` (stereo partly drawn) [Example 13C, 5-(3-((2R)-2-((3S,E)-3-hydroxy-4-methylnon-1-en-6-yn-1-yl)-5-oxopyrrolidin-1-yl)prop-1-yn-1-yl)thiophene-2-carboxylic acid] are 18.3 nM and greater than 10000 nM. Turning to `CCC#CCC(C)[C@@H](O)/C=C/[C@H]1CCC(=O)N1CC#Cc1ccc(C(=O)O)s1` (stereo partly drawn) [Example 13D, 5-(3-((2R)-2-((3R,E)-3-hydroxy-4-methylnon-1-en-6-yn-1-yl)-5-oxopyrrolidin-1-yl)prop-1-yn-1-yl)thiophene-2-carboxylic acid], the EC50 at rat EP2 receptor was greater than 10000 nM.
